Measured values reported in patent US12448366B2, “Solid forms of pralsetinib” (Rigel Pharmaceuticals, Inc., priority 2020, dated 2025).
Converted amounts (≈) assume the structure as drawn.

Tests used:
Format in all cases: physicochemical
[1] = Salt screening: XRPD of wet cake, after drying under vacuum at 50° C., after exposure to 97% relative humidity; conditions: XRPD; for stability of salt solid form to humidification: 97% (>95%) relative humidity; for stability of salt solid form to drying: vacuum at 50° C.
[2] = DSC and TGA/DSC thermal analysis; conditions: listed as Glutarate 11-A
Protocol: Differential scanning calorimetry was done using a Mettler Toledo DSC3+. The desired amount of sample is weighed directly in a hermetic aluminum pan with pin-hole. A typical sample mass for is 3-5 mg. A typical temperature range is 30° C. to 300° C. at a heating rate of 10° C. per minute (total time of 27 minutes). Typical parameters for DSC are listed below.
Thermogravimetric analysis and differential scanning calorimetry was done using a Mettler Toledo TGA/DSC3+. The desired amount of sample is weighed directly in a hermetic aluminum pan with pin-hole. A typical sample mass for the measurement is 5-10 mg. A typical temperature range is 30° C. to 300° C. at a heating rate of 10° C. per minute (total time of 27 minutes). Protective and purge gasses are nitrogen (20-30 mL/min and 50-100 mL/min). Typical parameters for DSC/TGA are listed below.
Differential scanning calorimetry was performed using a Mettler Toledo DSC3+. The sample (3-5 mg) was weighed directly in a 40 μL hermetic aluminum pan with pin-hole and analyzed according to the parameters below:
Thermogravimetric analysis and differential scanning calorimetry were performed on the same sample simultaneously using a Mettler Toledo TGA/DSC3+. […] The desired amount of sample (5-10 mg) was weighed directly in a hermetic aluminum pan with pin-hole and analyzed according to the parameters below: […]

[3] = One week (7 days) slurry stability by XRPD and HPLC; conditions: XRPD and HPLC, listed as solid form 11-A
[4] = Solubility in water and simulated fluids (fasted/fed state simulated intestinal fluid, fasted state simulated gastric fluid); conditions: water, room temperature; read-out: water solubility at room temperature
[5] = Humidity exposure, 75% relative humidity at 40° C. for one week, XRPD; conditions: XRPD pattern after exposure; listed as Glutarate 11-A
[6] = Dynamic vapor sorption (DVS)
Protocol: Dynamic Vapor Sorption (DVS) was done using a DVS Intrinsic 1. The sample is loaded into a sample pan and suspended from a microbalance. A typical sample mass for DVS measurement is 25 mg. Nitrogen gas bubbled through distilled water provides the desired relative humidity. A typical measurement comprises the steps: • 1—Equilibrate at 50% RH • 2—50% to 2%. (50%, 40%, 30%, 20%, 10% and 2%) • a. Hold minimum of 5 mins and maximum of 60 minutes at each humidity. The pass criteria is less than 0.002% change • 3—2% to 95% (2%, 10%, 20%, 30%, 40%, 50%, 60%, 70%, 80%, 90%, 95%) • a. Hold minimum of 5 mins and maximum of 60 minutes at each humidity. The pass criteria is less than 0.002% change • 4—95% to 2% (95%, 80%, 70%, 60%, 50%, 40%, 30%, 20%, 10%, 2%) • a. Hold minimum of 5 mins and maximum of 60 minutes at each humidity. The pass criteria is less than 0.002% change • 5—2% to 50% (2%, 10%, 20%, 30%, 40%, 50%) • a. Hold minimum of 5 mins and maximum of 60 minutes at each humidity. The pass criteria is less than 0.002% change High Pressure Liquid Chromatography (HPLC)
Dynamic Vapor Sorption (DVS) was performed using a DVS Intrinsic 1. The samples (12-31 mg) was loaded into a sample pan, suspended from a microbalance and exposed to a humidified stream of nitrogen gas. The sample was held for a minimum of 5 min at each level and only progressed to the next humidity level if there was <0.002% change in weight between measurements (interval: 60 seconds) or 240 min had elapsed. The following program was used: • 1—Equilibration at 50% RH • 2—50% to 2%. (50%, 40%, 30%, 20%, 10% and 2%) • 3—2% to 95% (2%, 10%, 20%, 30%, 40%, 50%, 60%, 70%, 80%, 90%, 95%) • 4—95% to 2% (95%, 80%, 70%, 60%, 50%, 40%, 30%, 20%, 10%, 2%) • 5—2% to 50% (2%, 10%, 20%, 30%, 40%, 50%) High Performance Liquid Chromatography (HPLC)

Structure (SMILES): CO[C@]1(C(=O)N[C@@H](C)c2ccc(-n3cc(F)cn3)nc2)CC[C@H](c2nc(C)cc(Nc3cc(C)[nH]n3)n2)CC1 [Solid Form 11-A, pralsetinib]
- stability of salt solid form to humidification ([1]; listed as Pattern 11-A): stable
- stability of salt solid form to humidification ([1]; listed as glutarate 11-A): stable
- stability of salt solid form to humidification ([1]; listed as solid form 11-A): stable
- stability of salt solid form to drying ([1]; listed as Pattern 11-A): stable
- stability of salt solid form to drying ([1]; listed as glutarate 11-A): stable
- stability of salt solid form to drying ([1]; listed as solid form 11-A): stable
- Endotherm Onset [2]: 177.8 °C
- stability slurrying 7 days in EtOAc ([3]; EtOAc): converted to a solid form designated as solid form 11-B
- stability slurrying 7 days in EtOH ([3]; EtOH): converted to a solid form designated as solid form 11-B
- solubility [4]: 240 µg/mL (≈ 450 µM)
- Stability 40° C./75% RH [5]: Stable
- mass change by DVS ([6]; between 2% and 90% relative humidity, listed as solid form 11-A): 0.48 wt. %
- mass change by DVS ([6]; between 15% and 75% relative humidity, listed as solid form 11-A): 0.27 wt. %
- DVS Mass Change ([6]; glutarate and succinate: between 2% and 90% relative humidity, listed as Glutarate 11-A): 0.48 wt. %
- reversibility of the DVS mass change ([6]; listed as solid form 11-A): appears to be reversible
